Reference: patent US10626126B2, “Compounds” (Pulmocide Limited, priority 2016, dated 2020)
“Also recorded” adds a separate entry of the source.

How the values were obtained:
RSV A2 strain = assay: RSV A2 induced CPE in HEp2 cells; format: cell-based; details: human respiratory syncytial virus; for IC50: HEp-2, 120 h, 5 days; for inhibition at 0.01 µg/mL: HEp-2, at 0.01 μg/mL
In short: (§1)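 HEp2 cells in 5% FBS-DMEM were seeded one day before infection, then virus and compound were added together (0.5% DMSO final). A fluorogenic viability dye was added for a further 6 h at 37 °C, and fluorescence was read at 545/590 nm. Percent inhibition gave IC50, IC75 and IC90 from concentration-response curves.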

RSV B Washington strain = assay: RSV B induced CPE in HEp2 cells; format: cell-based; details: human respiratory syncytial virus; for IC50: HEp-2, 144 h, 6 days
In short: as §1

[1] = Cell viability: resazurin assay; format: cell-based; details: human, HEp2 cells
RSV A2 [2] = assay: RSV F protein expression in BEAS2B bronchial epithelial cells; format: cell-based; details: human respiratory syncytial virus, BEAS-2B, n=2
Protocol: An early event which follows the infection of epithelial cells by RSV is the expression of RSV F-protein on the cells' surface. BEAS2B cells were grown in 96 well plates. […] Supernatant was aspirated and the cells were fixed with 4% formaldehyde (100 μL in PBS solution) for 20 min, washed 3 times with washing buffer (200 μL; PBS containing 0.05% Tween-20) and incubated with blocking solution (100 μL; 5% BSA in washing buffer) for 1 hr. […] No. ab43812, Abcam plc, Cambridge, UK) F-fusion protein antibody (50 μL; prepared at a 1:2000 dilution in 5% BSA/washing buffer). After washing, cells were incubated with an HRP-conjugated anti-mouse IgG antibody (50 μL prepared at a 1:2000 dilution in 5% BSA in PBS; lot 00095437, Cat. No. P0447, Dako UK Ltd, Cambridgeshire, UK) for 1 hr. […] The resultant signal was determined colourimetrically (OD: 450 nm with a reference wavelength of 655 nm) in a microplate reader (Multiskan FC®, ThermoFisher Scientific). […] After washing with PBS (200 μL) 2 times, 1% SDS (100 μL) was added to each well, and plates were shaken lightly for 1 hr prior to reading the absorbance at 595 nm. The measured OD450-655 readings were corrected for cell number by dividing the OD450-655 by the OD595 readings. The percentage inhibition for each well was calculated and the IC50 value derived from the concentration-response curve generated for each test compound.

RSV NS-1 gene = assay: RSV infection in cotton rats: RSV NS-1 gene expression in lung (qRT-PCR); format: in vivo, Sigmodon hispidus cotton rats; details: intranasal
hRSV/A/Long = assay: RSV infection in cotton rats: viral titre in lung (plaque assay); details: for Virus titre in lung, Geometric Mean / Virus titre in lung, Median: day 4 post infection
Protocol: (§2) Male Sigmodon hispidus cotton rats between 6 and 8 weeks of age were infected with hRSV/A/Long (ATCC, Manassas, Va.; 10^5 pfu) in a volume of 0.1 mL of sucrose stabilizing media. Test compounds were dissolved in 100% DMSO (at 3.3, 10, 33 and 100 mg/mL), then diluted (1:10 in isotonic saline to achieve 10% DMSO in all treatments) and sonicated to produce suspensions which were administered intranasally (50 μL) by pipette 4 hr before infection (on day 0), and then on days 1, 2 and 3 post infection. Four days after RSV challenge, the animals were euthanised and the lungs removed.
The supernatants of lung homogenates were diluted 1:10 and 1:100 in Eagle (E)-MEM. Confluent HEp2 monolayers in 24-well plates were infected in duplicate (50 μL of sample per well) starting with undiluted (neat) samples followed by diluted homogenates. After incubation for 1 hr (37° C./5% CO2) wells were overlaid with 0.75% methylcellulose medium and plates replaced in the 37° C. incubator. After incubation (for 4 days), the overlay was removed, the cells fixed with 0.1% crystal violet stain (for 1 hr) and then rinsed and air-dried. Plaques were counted and viral titers were expressed as plaque forming units per gram (pfu.g^−1) of tissue.

RANTES gene = assay: RSV infection in cotton rats: RANTES gene expression in lung (qRT-PCR); details: intranasal
Protocol: as §2
Total RNA was also extracted from homogenized lung tissue (RNeasy purification kit; Qiagen) and a sample (1 μg) used to prepare cDNA using QuantiTect Reverse Transcription Kit (Qiagen). For real-time PCR reactions (RSV NS-1 and RANTES genes) the QuantiFast SYBR® Green PCR Kit (Qiagen) was used in a final volume of 25 μL, with final primer concentrations of 0.5 μM. Amplifications were performed on a Bio-Rad iCycler for 1 cycle of 950C for 3 min, followed by 40 cycles of 950C for 10 sec, 600C for 10 sec, and 720C for 15 sec. Baseline cycles and cycle threshold (Ct) were calculated by the iQ5 software in the PCR Base Line Subtracted Curve Fit mode.
The standard curves were developed using the serially diluted cDNA sample most enriched in the transcript of interest (e.g., lungs from day 4 post-primary RSV infection). The Ct values were plotted against log10 cDNA dilution factor and the curves were used to convert the Ct values obtained for different samples to relative expression units, which were then normalized against the level of R-actin mRNA (“housekeeping gene”) expressed in the corresponding sample. The mRNA levels were expressed as the geometric mean±SEM for all animals in a group.

RSV A2 [3] = assay: Virus titre in air-liquid interface (ALI) cultured bronchial epithelial cells; details: for Virus titre in apical wash, geometric mean: late intervention (days 3-7), 0.1 mg/mL; for inhibition of virus titre in ALI culture (in words): late stage intervention
Protocol: ALI cultured human bronchial epithelial cells were sourced from Epithelix Sarl (Geneva, Switzerland) and maintained by changing the basal media every 3-4 days, whilst the apical surface was washed once weekly with PBS. On day 0, the apical surface of each well was washed once with sterile PBS (300 μL) and the inserts transferred to new 24-well plates containing fresh MucilAir culture medium (780 μL; EP04MM). RSV A2 (50 μL; diluted in MucilAir culture medium to give a final MOI of 0.01) was added to cells for one hr (37° C./5% CO2). For the purposes of standardizing MOI calculations, each MucilAir insert was estimated to contain 2×10^5 apical facing cells per well. Virus inoculum was removed with a pipette and inserts were washed twice with sterile PBS (300 μL).
Sampling was conducted by adding sterile PBS (300 μL) to the apical surface of each well for 5 min. The apical sample was then removed and transferred to tubes containing 50% sucrose dissolved in PBS (100 μL) before being stored at −80° C. This harvesting procedure was repeated daily beginning on day 0 and concluding on day 10.
The test compound (50 μL in 0.5% DMSO/PBS) was added to the apical surface and incubated (37° C./5% CO2) for 1 hr before being removed. Vehicle treatments (0.5% DMSO/PBS) were performed on the corresponding apical surfaces to ensure each well received the same number of manipulations. On day 5, the basal media was removed from each well and replenished with fresh MucilAir culture media as a necessary maintenance step for ALI culture cells.
Virus titre was quantified by plaque assay. HEp2 cells were grown in 24-well plates (Corning) for 48 hr prior to infection in DMEM containing 10% FBS until they attained 100% confluency.
Collected samples were thawed at RT and ten-fold serial dilutions were prepared in serum-free DMEM. The growth medium from HEp2 cells was aspirated and replaced with 300 μL of serially diluted virus collections and left to infect at 37° C./5% CO2 for 4 hr. The infectious media was aspirated and replaced with 1 mL Plaque Assay Overlay (0.3% Avicel RC-591 (FMC Biopolymer UK, Girvan, Scotland)) in MEM, supplemented to a final concentration of 2% FCS), and left for 7 days at 37° C./5% CO2. Cells were fixed with ice-cold methanol for 10 min, then removed and cells subjected to two washes with sterile PBS. Cells were then stained with crystal violet solution (200 μL 0.1%, in distilled water) for 1 hr. Crystal violet solution was removed and cells rinsed with water before plaques were counted and virus titre enumerated.

`Cc1cnc(N2CC3(CCOCC3)C2)c(C(=O)Nc2ccc(C(=O)N3CCc4cc(C(=O)Nc5c(F)cccc5F)sc4-c4sccc43)cc2)c1` [Example 1, N-(2,6-Difluorophenyl)-4-(4-(5-methyl-2-(7-oxa-2-azaspiro[3.5]nonan-2-yl)nicotinamido)benzoyl)-5,6-dihydro-4H-dithieno[3,2-b:2′,3′-d]azepine-8-carboxamide] showed an IC50 (RSV A2 strain) of 0.11 nM, an inhibition at 0.01 µg/mL (RSV A2 strain) of 100% and an IC50 (RSV B Washington strain) of 9 nM. It also gave an inhibition at 0.1 µg/mL (RSV B Washington strain; HEp-2, at 0.1 μg/mL) of 100%, a CC50 at 5 days [1] of over 13800 nM and an IC50 (RSV A2 [2]) of 0.021 nM. The IC90 (RSV A2 [2]) was 0.078 nM, the “inhibition of RSV NS-1 gene transcripts (in words)” value (RSV NS-1 gene) was “dose-dependent inhibition” and the “RSV NS1 gene transcript % inhibition” value (RSV NS-1 gene; 0.33 mg/mL) was −42%. The “RSV NS1 gene transcript (/β-actin), Median” value (RSV NS-1 gene; 0.33 mg/mL) was 4.4, the “RSV NS1 gene transcript % inhibition” value (RSV NS-1 gene; 1.0 mg/mL) was 39% and the “RSV NS1 gene transcript (/β-actin), Median” value (RSV NS-1 gene; 1.0 mg/mL) was 1.9. For the same compound, the “RSV NS1 gene transcript % inhibition” value (RSV NS-1 gene; 3.3 mg/mL) was 48%, the “RSV NS1 gene transcript (/β-actin), Median” value (RSV NS-1 gene; 3.3 mg/mL) was 1.6 and the “RSV NS1 gene transcript % inhibition” value (RSV NS-1 gene; 10 mg/mL) was 68%. For the same compound, the “RSV NS1 gene transcript (/β-actin), Median” value (RSV NS-1 gene; 10 mg/mL) was 1.0, the “Virus titre in lung, Geometric Mean” value (hRSV/A/Long; intranasal, 0.1 mg/mL) was 5.4 log, PFU/lung and the “Virus titre in lung, Median” value (hRSV/A/Long; intranasal, 0.1 mg/mL) was 5.4 log, PFU/lung. The “Virus titre in lung, Geometric Mean” value (hRSV/A/Long; intranasal, 0.33 mg/mL) was 5.0 log, PFU/lung, the “Virus titre in lung, Median” value (hRSV/A/Long; intranasal, 0.33 mg/mL) was 5.0 log, PFU/lung and the “Virus titre in lung, Geometric Mean” value (hRSV/A/Long; intranasal, 1.0 mg/mL) was 4.3 log, PFU/lung. For the same compound, the “Virus titre in lung, Median” value (hRSV/A/Long; intranasal, 1.0 mg/mL) was 4.3 log, PFU/lung, the “Virus titre in lung, Geometric Mean” value (hRSV/A/Long; intranasal, 3.3 mg/mL) was <2.3^2 log, PFU/lung and the “Virus titre in lung, Median” value (hRSV/A/Long; intranasal, 3.3 mg/mL) was <2.3 log, PFU/lung. For the same compound, the “inhibition of viral titre in lung homogenates (in words)” value (hRSV/A/Long; intranasal, RSV/A/Long infected cotton rats) was “potent dose-dependent inhibition of viral titre; also recorded: completely inhibited virus titre”, the “inhibition of RANTES transcripts in lung (in words)” value (RANTES gene) was “dose-dependent inhibition” and the “RANTES gene transcript % Inhibition” value (RANTES gene; 0.33 mg/mL) was −8%. The “RANTES gene transcript (/β-actin), Median” value (RANTES gene; 0.33 mg/mL) was 3.9, the “RANTES gene transcript % Inhibition” value (RANTES gene; 1.0 mg/mL) was 36% and the “RANTES gene transcript (/β-actin), Median” value (RANTES gene; 1.0 mg/mL) was 2.3. The “RANTES gene transcript % Inhibition” value (RANTES gene; 3.3 mg/mL) was 36%, the “RANTES gene transcript (/β-actin), Median” value (RANTES gene; 3.3 mg/mL) was 2.3 and the “RANTES gene transcript % Inhibition” value (RANTES gene; 10 mg/mL) was 61%. For the same compound, the “RANTES gene transcript (/β-actin), Median” value (RANTES gene; 10 mg/mL) was 1.4, the “Virus titre in apical wash, geometric mean” value (“Virus titre in apical wash” below) (RSV A2 [3]; day 0) was 0 log PFU/mL and the “Virus titre in apical wash” value (RSV A2 [3]; day 1) was 2.14 log PFU/mL. The “Virus titre in apical wash” value (RSV A2 [3]; day 2) was 3.05 log PFU/mL, the “Virus titre in apical wash” value (RSV A2 [3]; day 3) was 5.18 log PFU/mL and the “Virus titre in apical wash” value (RSV A2 [3]; day 4) was 3.55 log PFU/mL. The “Virus titre in apical wash” value (RSV A2 [3]; day 5) was 3.68 log PFU/mL, the “Virus titre in apical wash” value (RSV A2 [3]; day 6) was 2.24 log PFU/mL and the “Virus titre in apical wash” value (RSV A2 [3]; day 7) was 1.71 log PFU/mL. For the same compound, the “inhibition of virus titre in ALI culture (in words)” value (RSV A2 [3]) was “completely inhibited virus titre”.

Work on `Cc1cnc(N2CC3(CCOCC3)C2)c(C(=O)Nc2ccc(C(=O)N3CCc4cc(C(=O)Nc5c(F)cccc5Cl)sc4-c4sccc43)cc2)c1` [Example 12, N-(2-chloro-6-fluorophenyl)-4-(4-(5-methyl-2-(7-oxa-2-azaspiro[3.5]nonan-2-yl)nicotinamido)benzoyl)-5,6-dihydro-4H-dithieno[3,2-b:2′,3′-d]azepine-8-carboxamide] yielded an IC50 (RSV A2 strain) of 0.14 nM, an inhibition at 0.01 µg/mL (RSV A2 strain) of 84% and an IC50 (RSV B Washington strain) of 3.1 nM. For the same compound, the inhibition at 1 µg/mL (RSV B Washington strain; HEp-2, at 1 μg/mL) was 97%, the CC50 at 5 days [1] was over 13500 nM and the “reduction of virus titre” value (hRSV/A/Long; intra-nasal dosing at 1 mg/ml) was 0.7 log. The “Virus titre in lung, Geometric Mean” value (hRSV/A/Long; intranasal, 1.0 mg/mL) was 4.5 log, PFU/lung, the “Virus titre in lung, Median” value (hRSV/A/Long; intranasal, 1.0 mg/mL) was 4.5 log, PFU/lung and the “Virus titre in apical wash” value (RSV A2 [3]; day 0) was 0 log PFU/mL. The “Virus titre in apical wash” value (RSV A2 [3]; day 1) was 2.57 log PFU/mL, the “Virus titre in apical wash” value (RSV A2 [3]; day 2) was 4.86 log PFU/mL and the “Virus titre in apical wash” value (RSV A2 [3]; day 3) was 5.27 log PFU/mL. The “Virus titre in apical wash” value (RSV A2 [3]; day 4) was 4.71 log PFU/mL, the “Virus titre in apical wash” value (RSV A2 [3]; day 5) was 3.45 log PFU/mL and the “Virus titre in apical wash” value (RSV A2 [3]; day 6) was 2.62 log PFU/mL. For the same compound, the “Virus titre in apical wash” value (RSV A2 [3]; day 7) was 1.22 log PFU/mL and the “inhibition of virus titre in ALI culture (in words)” value (RSV A2 [3]) was “completely inhibited virus titre”.
